The source of these data is patent publication US20180079752A1, “BTK INHIBITORS” (MERCK SHARP & DOHME CORP., priority 2015, published 2018).

T1 sequence (Q06187 whole entry): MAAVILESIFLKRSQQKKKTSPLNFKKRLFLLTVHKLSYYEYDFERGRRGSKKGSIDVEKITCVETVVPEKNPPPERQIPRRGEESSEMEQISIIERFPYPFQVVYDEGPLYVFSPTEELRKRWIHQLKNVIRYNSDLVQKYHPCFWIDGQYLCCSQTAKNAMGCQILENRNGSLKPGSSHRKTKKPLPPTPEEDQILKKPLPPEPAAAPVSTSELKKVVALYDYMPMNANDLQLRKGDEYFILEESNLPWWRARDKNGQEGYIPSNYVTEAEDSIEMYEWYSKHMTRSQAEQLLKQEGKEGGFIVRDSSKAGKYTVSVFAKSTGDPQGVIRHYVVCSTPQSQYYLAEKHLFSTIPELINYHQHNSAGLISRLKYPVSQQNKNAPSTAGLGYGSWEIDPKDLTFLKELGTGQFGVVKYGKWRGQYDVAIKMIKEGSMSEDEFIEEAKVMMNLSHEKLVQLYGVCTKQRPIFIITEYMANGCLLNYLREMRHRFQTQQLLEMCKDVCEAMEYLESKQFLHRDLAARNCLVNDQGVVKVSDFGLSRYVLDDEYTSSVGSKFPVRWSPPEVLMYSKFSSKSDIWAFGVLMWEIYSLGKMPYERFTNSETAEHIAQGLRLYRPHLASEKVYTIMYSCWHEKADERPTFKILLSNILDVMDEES

The assay addresses T1, BTK enzyme (recombinant full-length BTK, hBTK) (Homo sapiens, UniProt Q06187).
T1 construct: recombinant protein from baculovirus-transfected Sf9 cells: full-length BTK, 6HIS-tag cleaved; 6HIS (cleaved yes); made in house; host or cells: baculovirus-transfected Sf9 cells
The assay is described as follows: Btk enzyme activity assay (LANCE TR-FRET). The format is biochemical. The conditions noted are these: 60 minute compound & enzyme incubation, 50 pM hBTK, 25 μM ATP, read-out: BTK binding IC50. The procedure:
BTK enzymatic activity was determined with the LANCE (Lanthanide Chelate Excite) TR-FRET (Time-resolved fluorescence resonance energy transfer) assay. In this assay, the potency (IC50) of each compound was determined from an eleven point (1:3 serial dilution; final compound concentration range in assay from 1 μM to 0.017 nM) titration curve using the following outlined procedure. To each well of a black non-binding surface Corning 384-well microplate (Corning Catalog #3820), 5 nL of compound (2000 fold dilution in final assay volume of 10 μL) was dispensed, followed by the addition of 7.5 μL of 1× kinase buffer (50 mM Hepes 7.5, 10 mM MgCl2, 0.01% Brij-35, 1 mM EGTA, 0.05% BSA & 1 mM DTT) containing 5.09 pg/μL (66.67 pM) of BTK enzyme (recombinant protein from baculovirus-transfected Sf9 cells: full-length BTK, 6HIS-tag cleaved). Following a 60 minute compound & enzyme incubation, each reaction was initiated by the addition of 2.5 μL 1× kinase buffer containing 8 μM biotinylated “AS” peptide (Biotin-EQEDEPEGDYFEWLE-NH2), and 100 μM ATP. The final reaction in each well of 10 μL consists of 50 pM hBTK, 2 μM biotin-AS-peptide, and 25 μM ATP. Phosphorylation reactions were allowed to proceed for 120 minutes. Reactions were immediately quenched by the addition of 20 uL of 1× quench buffer (15 mM EDTA, 25 mM Hepes 7.3, and 0.1% Triton X-100) containing detection reagents (0.626 nM of LANCE-Eu-W1024-anti-phosphoTyrosine antibody, PerkinElmer and 86.8 nM of Streptavidin-conjugated Dylight 650, Dyomics/ThermoFisher Scientific). After 60 minutes incubation with detection reagents, reaction plates were read on a PerkinElmer EnVision plate reader using standard TR-FRET protocol. Briefly, excitation of donor molecules (Eu-chelate:anti-phospho-antibody) with a laser light source at 337 nm produces energy that can be transferred to Dylight-650 acceptor molecules if this donor:acceptor pair is within close proximity. Fluorescence intensity at both 665 nm (acceptor) and 615 nm (donor) are measured and a TR-FRET ratio calculated for each well (acceptor intensity/donor intensity). IC50 values were determined by 4 parameter robust fit of TR-FRET ratio values vs. (Log10) compound concentrations.
Usually IC50 stands for the concentration that inhibits the measured activity by half. On to `N#CN1CCC[C@@H](c2nc(-c3ccc(C(=O)Nc4cc(C(F)(F)F)ccn4)cc3)c3c(N)nccn23)C1` [Example 1, 4-{8-amino-3-[(3R)-1-cyanopiperidin-3-yl]imidazo[1,5-a]pyrazin-1-yl}-N-[4-(trifluoromethyl)pyridin-2-yl]benzamide], for which the IC50 was 3.6 nM.
`N#CN1CCC[C@@H](c2nc(-c3ccc(C(=O)Nc4ccccn4)cc3)c3c(N)nccn23)C1` [Example 2, 4-{8-amino-3-[(3R)-1-cyanopiperidin-3-yl]imidazo[1,5-a]pyrazin-1-yl}-N-pyridin-2-ylbenzamide]: the IC50 amounted to 1.5 nM.
The same measure for `N#CN1CCC[C@H]1c1nc(-c2ccc(C(=O)Nc3ccccn3)cc2)c2c(N)nccn12` [Example 3, 4-{8-amino-3-[(2S)-1-cyanopyrrolidin-2-yl]imidazo[1,5-a]pyrazin-1-yl}-N-pyridin-2-ylbenzamide]: 60.3 nM; for `N#CN1CCC[C@H]1c1nc(-c2ccc(C(=O)Nc3cc(F)ccn3)cc2)c2c(N)nccn12` [Example 4, 4-{8-amino-3-[(2S)-1-cyanopyrrolidin-2-yl]imidazo[1,5-a]pyrazin-1-yl}-N-(4-fluoropyridin-2-yl)benzamide]: 49 nM.
`Cc1nccn2c([C@@H]3CCCN3C#N)nc(-c3ccc(C(=O)Nc4ccccn4)cc3)c12` [Example 5, 4-{3-[(2S)-1-cyanopyrrolidin-2-yl]-8-methylimidazo[1,5-a]pyrazin-1-yl}-N-pyridin-2-ylbenzamide]: the IC50 was determined as 371 nM.
Consider `N#CN1CCOC(c2nc(-c3ccc(C(=O)Nc4cc(C(F)(F)F)ccn4)cc3)c3c(N)nccn23)C1` (centres unmarked) [Example 6, 4-[8-amino-3-(4-cyanomorpholin-2-yl)imidazo[1,5-a]pyrazin-1-yl]-N-[4-(trifluoromethyl)pyridin-2-yl]benzamide], for which the IC50 worked out at 3.9 nM.
Turning to `N#CN1CCC[C@@H](c2nc(-c3ccc(C(=O)Nc4cc(C5CC5)ccn4)cc3)c3c(N)nccn23)C1` [Example 7, 4-{8-amino-3-[(3R)-1-cyanopiperidin-3-yl]imidazo[1,5-a]pyrazin-1-yl}-N-(4-cyclopropylpyridin-2-yl)benzamide], the IC50 was determined as 1.8 nM.
As to `Cc1nccn2c([C@@H]3CCCN(C#N)C3)nc(-c3ccc(C(=O)Nc4cc(C5CC5)ccn4)cc3)c12` [Example 8, 4-{3-[(3R)-1-cyanopiperidin-3-yl]-8-methylimidazo[1,5-a]pyrazin-1-yl}-N-(4-cyclopropylpyridin-2-yl)benzamide], the IC50 stood at 46.8 nM.
In the case of `N#CN1CCC[C@H]1c1nc(-c2ccc(C(=O)Nc3cc(C4CC4)ccn3)cc2)c2c(N)nccn12` [Example 9, 4-{8-amino-3-[(2S)-1-cyanopyrrolidin-2-yl]imidazo[1,5-a]pyrazin-1-yl}-N-(4-cyclopropylpyridin-2-yl)benzamide], the concentration for half-maximal inhibition (IC50) is 67.6 nM.
Take `C[C@H]1CC[C@@H](c2nc(-c3ccc(C(=O)Nc4ccccn4)cc3)c3c(N)nccn23)CN1C#N` [Example 10, 4-{8-amino-3-[(3R,6S)-1-cyano-6-methylpiperidin-3-yl]imidazo[1,5-a]pyrazin-1-yl}-N-pyridin-2-ylbenzamide]: the IC50 was 3.1 nM.
As for `N#CN1CCO[C@@H](c2nc(-c3ccc(C(=O)Nc4cc(C(F)(F)F)ccn4)cc3)c3c(N)nccn23)C1` [Example 11, 4-{8-amino-3-[(2R)-4-cyanomorpholin-2-yl]imidazo[1,5-a]pyrazin-1-yl}-N-[4-(trifluoromethyl)pyridin-2-yl]benzamide], the IC50 worked out at 0.78 nM.
`N#CN1CCO[C@@H](c2nc(-c3ccc(C(=O)Nc4cc(C5CC5)ccn4)cc3)c3c(N)nccn23)C1` [Example 12, 4-{8-amino-3-[(2R)-4-cyanomorpholin-2-yl]imidazo[1,5-a]pyrazin-1-yl}-N-(4-cyclopropylpyridin-2-yl)benzamide]: the IC50 came out at 1 nM.
On to `N#CN1CCC[C@@H](c2nc(-c3ccc(C(=O)Nc4cc(C(F)(F)F)ccn4)cc3F)c3c(N)nccn23)C1` [Example 13, 4-{8-amino-3-[(3R)-1-cyanopiperidin-3-yl]imidazo[1,5-a]pyrazin-1-yl}-3-fluoro-N-[4-(trifluoromethyl)pyridin-2-yl]benzamide], for which the 50% inhibitory concentration (IC50) turned out to be 0.36 nM.
As to `Cc1ccnc(NC(=O)c2ccc(-c3nc([C@@H]4CCCN(C#N)C4)n4ccnc(N)c34)cc2)c1` [Example 14, 4-{8-amino-3-[(3R)-1-cyanopiperidin-3-yl]imidazo[1,5-a]pyrazin-1-yl}-N-(4-methylpyridin-2-yl)benzamide], the IC50 is 0.24 nM.
`COc1ccnc(NC(=O)c2ccc(-c3nc([C@@H]4CCCN(C#N)C4)n4ccnc(N)c34)cc2)c1` [Example 15, 4-{8-amino-3-[(3R)-1-cyanopiperidin-3-yl]imidazo[1,5-a]pyrazin-1-yl}-N-(4-methoxypyridin-2-yl)benzamide]: the IC50 came out at 0.41 nM.
In the case of `N#CN1CCC[C@@H](c2nc(-c3ccc(C(=O)Nc4cc(C(F)F)ccn4)cc3)c3c(N)nccn23)C1` [Example 16, 4-{8-amino-3-[(3R)-1-cyanopiperidin-3-yl]imidazo[1,5-a]pyrazin-1-yl}-N-[4-(difluoromethyl)pyridin-2-yl]benzamide], the IC50 worked out at 0.29 nM.
As to `N#CN1CCC[C@@H](c2nc(-c3ccc(C(=O)Nc4cc(C(F)(F)F)ccn4)cc3)c3c(N)ncc(Cl)n23)C1` [Example 17, 4-{8-amino-5-chloro-3-[(3R)-1-cyanopiperidin-3-yl]imidazo[1,5-a]pyrazin-1-yl}-N-[4-(trifluoromethyl)pyridin-2-yl]benzamide], the IC50 came to 0.19 nM.
As to `COCc1cnc(N)c2c(-c3ccc(C(=O)Nc4cc(C(F)(F)F)ccn4)cc3F)nc([C@@H]3CCCN(C#N)C3)n12` [Example 18, 4-{8-amino-3-[(3R)-1-cyanopiperidin-3-yl]-5-(methoxymethyl)imidazo[1,5-a]pyrazin-1-yl}-3-fluoro-N-[4-(trifluoromethyl)pyridin-2-yl]benzamide], the half-inhibitory concentration (IC50) amounted to 0.92 nM.
In the case of `CCOc1cc(C(=O)Nc2cc(C(F)(F)F)ccn2)ccc1-c1nc([C@@H]2CCCN(C#N)C2)n2ccnc(N)c12` [Example 19, 4-{8-amino-3-[(3R)-1-cyanopiperidin-3-yl]imidazo[1,5-a]pyrazin-1-yl}-3-ethoxy-N-[4-(trifluoromethyl)pyridin-2-yl]benzamide] it was 0.68 nM.
The same measure for `C[C@H]1CO[C@@H](c2nc(-c3ccc(C(=O)Nc4cc(C(F)(F)F)ccn4)cc3F)c3c(N)ncc(Cl)n23)CN1C#N` [Example 20, 4-{8-amino-5-chloro-3-[(2R,5S)-4-cyano-5-methylmorpholin-2-yl]imidazo[1,5-a]pyrazin-1-yl}-3-fluoro-N-[4-(trifluoromethyl)pyridin-2-yl]benzamide]: 0.48 nM; for `CCOc1cc(C(=O)Nc2cc(C(F)(F)F)ccn2)ccc1-c1nc([C@H]2CN(C#N)[C@@H](C)CO2)n2c(Cl)cnc(N)c12` [Example 21, 4-{8-amino-5-chloro-3-[(2R,5S)-4-cyano-5-methylmorpholin-2-yl]imidazo[1,5-a]pyrazin-1-yl}-3-ethoxy-N-[4-(trifluoromethyl)pyridin-2-yl]benzamide]: 1.5 nM.
In the case of `COc1cc(C(=O)Nc2cc(C(F)(F)F)ccn2)ccc1-c1nc([C@H]2CN(C#N)CCO2)n2ccnc(N)c12` [Example 22, 4-{8-amino-3-[(2R)-4-cyanomorpholin-2-yl]imidazo[1,5-a]pyrazin-1-yl}-3-methoxy-N-[4-(trifluoromethyl)pyridin-2-yl]benzamide], the IC50 stood at 0.6 nM.
For `CCOc1cc(C(=O)Nc2cc(C(F)(F)F)ccn2)ccc1-c1nc([C@@H]2CC[C@H](C)N(C#N)C2)n2c(Cl)cnc(N)c12` [Example 23, 4-{8-amino-5-chloro-3-[(3R,6S)-1-cyano-6-methylpiperidin-3-yl]imidazo[1,5-a]pyrazin-1-yl}-3-ethoxy-N-[4-(trifluoromethyl)pyridin-2-yl]benzamide], the IC50 is 2.2 nM.
